Holding throughout (format): cell-based, human
The subject of test [1] is FLT3 signaling pathway. In words: CELx multiple pathway test, impedance biosensor cell adhesion, FL/Gilteritnib pair. The settings on record: activator FL. An excerpt: Biosensor and transducer: A 96-well impendence E-Plate (ACEA, San Diego, CA) was placed onto an xCELLigence RTCA MP Station impendence biosensor (ACEA, San Diego, CA). The biosensor measured simultaneously the impedance of every well. The change in impedance for a particular well is proportional to the number of cells and type of attachment the cells have with the impedance microplate. Changes in impedance indicate a response to perturbation of these small cell populations. Coatings: The 96-E-Plate were wells were coated with fibronectin and or collagen. Collagen is purchased from Advanced BioMatrix (Carlsbad, CA) and fibronectin from Sigma-Aldrich (St. Louis, MO). Tissue and cell samples: A total of 18 samples of human tumor cells from breast, lung, colon, ovarian, kidney, bladder cancer were studied. For each of these six different cancer types, tumor cell samples from three different patients were tested. Any biomarkers that are used to guide selection of targeted therapy are listed in Table 18 for each patient if they were present. Signaling Pathways activator agent and targeted therapeutic pairs: Eleven different signaling pathways were studied in each human tumor cell sample using […] signaling pathway activator agent and targeted therapeutic pairs. Each of the signaling pathway activator agent and targeted therapeutic pairs affect the same signaling pathway. Each of the signaling pathway activator agents is a well-characterized and specific agonist of its associated signaling pathway and each of the targeted therapeutic agents is a well-characterized and specific antagonist of the same associated signaling pathway. The signaling pathway activator agents and targeted therapeutics used to characterize the activity level of the associated signaling pathway are summarized in Table 16 below:
Other Reagents: Standard media antibiotics (e.g. penicillin, streptomycin) and other buffers were purchased and used as delivered from ATCC (Manassas, VA, USA) or Life Technologies (Grand Island, NY). Procedure: For each test of a patient cell sample with a pair of signaling pathway activator and targeted therapeutic agents, six wells were seeded with approximately 15,000 cells in 120 uL culture media. Twenty microliters of the targeted therapeutic agent were added to two wells of each patient's cells and 20 microliters of standard media were added to the other four wells for each patient 18 hours in advance of addition of the signaling pathway activator agent. Signaling pathway stimulation was initiated with the addition of 20 ul of the signaling pathway activator agent in the two wells that received a targeted therapeutic agent and in two additional wells for each patient's set of cells without the targeted therapeutic. The impedance recording of attachment and adhesion change was performed at 37° C., 5% C02. Data was recorded on a continuous basis throughout the test, where the data presented is from the initial baseline level of cell attachment compared to the subsequent effects following the targeted therapeutic agent and the signaling pathway activator agent additions on the 18 different patient samples.
For each of the 18 patient samples, up to 11 different signaling pathways were tested. The output value represents the difference between the amount of cell adhesion change resulting from addition of the signaling pathway activator agent and the amount of cell adhesion change resulting from addition of the targeted therapeutic agent.

Test [2] relates to HER1, HER3 and c-Met pathways. The experiment in a line: CELx test of multiple pathways simultaneously (EGF, NRG1, HGF in combination), impedance biosensor. From the text:
Biosensor and transducer: A 96-well impendence E-Plate (ACEA, San Diego, CA) was placed onto an xCELLigence RTCA MP Station impendence biosensor (ACEA, San Diego, CA). The biosensor measured simultaneously the impedance of every well. The change in impedance for a particular well is proportional to the number of cells and type of attachment the cells have with the impedance microplate. Changes in impedance indicate a response to perturbation of these small cell populations. Coatings: The 96-E-Plate were wells were coated with fibronectin and or collagen. Collagen is purchased from Advanced BioMatrix (Carlsbad, CA) and fibronectin from Sigma-Aldrich (St. Louis, MO). Tissue and cell samples: Six samples of human tumor cells from breast cancer were studied (C1815, C1596, C1838, C135, C42, C264). Any biomarkers that are used to guide selection of targeted therapy are listed in Table 22 for each patient if they were present. Signaling Pathways activator agent and targeted therapeutic pairs: In each human tumor cell sample, gross signaling activity of the HER1, HER3 and c-Met pathways initiated by three activator agents (EGF, NRG1, HGF) in combination was quantified. […] Each of the signaling pathway activator agents is a well-characterized and specific agonist of its associated signaling pathway. […] The fifth targeted therapeutic tested, taselisib, is an inhibitor that binds to PI3k, which downstream of the HER family and c-Met receptors. Other Reagents: Standard media, antibiotics (e.g. penicillin, streptomycin), and other buffers were purchased and used as delivered from ATCC (Manassas, VA, USA) or Life Technologies (Grand Island, NY). Procedure:
For each test of a patient cell sample with a signaling pathway activator(s) and targeted therapeutic agent(s), six or eight wells were seeded with approximately 15,000 cells in 120 uL culture media; six wells were seeded when only a single drug was evaluated and eight wells were seeded when two drugs were evaluated. When only a single drug was evaluated, 20 uL of the targeted therapeutic agent was added to two wells of each patient's cells and the final concentration of the therapeutic agent in the two wells with the single therapeutic agent was 500 nanomolar. When two therapeutic agents were evaluated, two wells of patient cells received 20 uL of the combined therapeutic agents at a concentration of 500 nanomolar each and an additional two wells of patient cells received 20 uL of the combined therapeutic agents at a concentration of 50 nanomolar each. Twenty microliters of standard media were added to the other four wells for each patient 18 hours in advance of addition of the signaling pathway activator agent(s). Signaling pathway stimulation was initiated with the addition of 20 ul of the signaling pathway activator agent(s) in the two or four wells that received a targeted therapeutic agent(s) and two additional wells for each patient's set of cells. The impedance recording of attachment and adhesion change was performed at 37° C., 5% CO2. Data was recorded on a continuous basis throughout the test, where the data presented if from the initial baseline level of cell attachment compared to the subsequent effects following the targeted therapeutic agent(s) and the signaling pathway activator agent(s) additions on the nine different patient samples.
For each of the six patient samples, three different signaling pathways (HER1, HER3, c-Met) were activated simultaneously. The output value represents the difference between the amount of cell adhesion change resulting from addition of the signaling pathway activator agent(s) and the amount of cell adhesion change resulting from addition of the targeted therapeutic agent(s).

The test system of test [3] is HER family signaling pathways and the c-Met signaling pathway. The experiment in a line: CELx ex vivo test of C21 sample simultaneously agonized with NRG1, EGF and HGF. The settings on record: C21 cell sample simultaneously agonized with NRG1, EGF and HGF. The procedure: (§1) A HER2+ tumor cell sample, C21, was tested using essentially the same methods described in Examples 1 and 3 above to evaluate the status of the c-Met, EGFR, HER2 and HER3 pathways. […] Thus, this cell sample was suitable to assess whether cells found to be responsive to c-Met and EGFR inhibitors ex vivo in the CELx test would respond to these same inhibitors when another portion of the same cell sample was implanted in a xenograft mouse model.
(§2) This finding is not related to the receptor or gene amplification status of either receptor, nor observable when signaling activity is measured in isolation. This highlights the advantages of evaluating multiple signaling pathways simultaneously in live cells.

For test [4], the system named is c-Met signaling. In words: CELx ex vivo test of C21 sample agonized only by HGF. The settings on record: C21 cell sample agonized only by HGF. The procedure: as §1, §2

`CCc1nc(C(N)=O)c(Nc2ccc(N3CCC(N4CCN(C)CC4)CC3)c(OC)c2)nc1NC1CCOCC1` [Gilteritnib]: the output value came to 7 in test [1] (C2 breast tumor cells); 9 in test [1] (C21 breast tumor cells); 10 in test [1] (C34 breast tumor cells); 10 in test [1] (C54 ovarian tumor cells); 6 in test [1] (C77 ovarian tumor cells).

Turning to `Cc1nc(-c2cn3c(n2)-c2ccc(-c4cnn(C(C)(C)C(N)=O)c4)cc2OCC3)n(C(C)C)n1` [taselisib], the “Output value (cell adhesion change, activator agents minus targeted therapeutic agent(s))” value is on record as 246 in test [2] (breast cancer patient sample C42, agent(s) 500 nM each); 583 in test [2] (breast cancer patient sample C135, agent(s) 500 nM each); 276 in test [2] (breast cancer patient sample C264, agent(s) 500 nM each); 242 in test [2] (breast cancer patient sample C1596, agent(s) 500 nM each); 385 in test [2] (breast cancer patient sample C1815, agent(s) 500 nM each); 271 in test [2] (breast cancer patient sample C1838, agent(s) 500 nM each).

Regarding `CN1CCC(COc2cnc(-c3cccc(Cn4nc(-c5cccc(C#N)c5)ccc4=O)c3)nc2)CC1` [tepotinib], in test [3], the total signaling inhibited result is “less than 10%”. Further, in test [4], the “percentage of c-Met signaling activity inhibited” value is listed as approximately 100%.

These data come from patent publication US12320799B2, “Methods of measuring signaling pathway activity for selection of therapeutic agents” (Celcuity Inc., priority 2017, dated 2025).
